Results from US20050154032A1, “Methods of using zonisamide as an adjunctive therapy for partial seizures” (Eisai Co., Ltd, priority 2004, published 2005).

What was measured:
[1] = cited from earlier work; for hyperammonemia as adverse event: literature
[2] = tested on: carbonic anhydrase; settings: fraction of acetazolamide inhibition; cited from earlier work
[3] = tested on: cultured mouse spinal cord neurons; settings: 10-30 μg/mL; cited from earlier work
[4] = tested on: rat hippocampal slices; settings: 10-30 μg/mL; cited from earlier work
[5] = tested on: hepatic enzyme; settings: cited from earlier work
[6] = tested on: sodium channels; settings: in vitro; cited from earlier work
[7] = tested on: dopaminergic and serotonergic neurotransmission; settings: in vivo microdialysis; cited from earlier work
[8] = tested on: GABA/benzodiazepine receptor ionophore complex; settings: in vitro; cited from earlier work
[9] = tested on: T-type Ca^2+ currents; settings: in vitro; cited from earlier work
[10] = human, in vivo
Excerpt: The pharmacovigilance data that were collected, reviewed and analyzed provided the following information in respect of the incidence of hyperammonemia. A total of 4 cases fulfilled the criteria of potential hyperammonemia cases. These cases were reviewed in detail for evaluation of possible safety signals. Two US cases were reported as either high ammonia levels or increased ammonia. Two Japanese cases were reported as hyperammonemia.
Of these, two (2) cases (both ZON1000262 and ZON1000346) had strong confounding factors and seem to-be unrelated to zonisamide, but the possibility of zonisamide involvement cannot be completely excluded. The two cases of hyperammonemia originated from Japan and both involved adult patients. Both cases were serious and described as life-threatening. […]
Estimates of exposure, based upon retail and mail order prescriptions, indicate that the number of unique patients taking zonisamide capsules in the U.S. is about 37,276 (total prescriptions per year/average number of prescriptions per patient per year less a calculated percentage decrease based on estimated annual dropouts) in the time between approval in 2000 and December 2002. […] Similarly, the incidences of NMS estimated herein are unlikely to be higher than calculated. Based on the exposure data and number of hyperammonemia cases, the incidence of hyperammonemia is calculated to be about […].

[11] = upon reaching a stable dose or following dosage adjustment; cited from earlier work

Compound	hyperammonemia as adverse event [1]	cases of hyperammonemia associated with the drug ([1]; since 1979 (O'Neil et al. 2002))	carbonic anhydrase inhibition compared to acetazolamide [2]	postsynaptic GABA or glutamate responses [3]	synaptically-driven electrical activity [3]	neuronal or glial uptake of [3H]-GABA [4]	hepatic enzyme induction [5]	effect on sodium channels [6]	dopaminergic and serotonergic neurotransmission [7]	binding to GABA/benzodiazepine receptor ionophore complex [8]	effect on voltage-dependent, transient inward currents (T-type Ca2+ currents) [9]	cases fulfilling the criteria of potential hyperammonemia cases [10] [cases]	incidence of hyperammonemia [10]	time required to achieve steady-state levels [11]
NC(=O)N1c2ccccc2C=Cc2ccccc21 [carbamazepine]	known to cause hyperammonemia	–	–	–	–	–	–	–	–	–	–	–	–	–
CCCC(CCC)C(=O)O [valproate]	known to cause hyperammonemia	more than 30 cases	–	–	–	–	–	–	–	–	–	–	–	–
NS(=O)(=O)Cc1noc2ccccc12 [zonisamide, 1,2-benzisoxazole-3-methanesulfonamide]	–	–	1/50	without affecting	suppresses	without affecting	not known to be a hepatic enzyme inducer	blocks sodium channels	facilitates	binds to the GABA/benzodiazepine receptor ionophore complex in an allosteric fashion	reduces	4	about 1:1,222,453	up to two weeks
